According to EP0380897B1, “Pharmaceutical agents for female sterilization by way of intrauterine administration, and their therapeutical use” (priority 1989, dated 1990):
Read-outs that look alike come from different tables or passages of the source.

How the values were obtained:
sujets = conditions: cited from earlier work
trompes humaines = test: Clinical follow-up of pregnancies after non-surgical female sterilization with intrauterine quinacrine tablets, alone or with an anti-inflammatory adjuvant; format: in vivo, femmes; conditions: for taux de grossesse: quinacrine alone
Description: (§1) Ce symptôme est survenu chez 6 % des sujets dans les deux insertions ou seulement dans une seule. • b) un phénomène de fièvre de 38°C à 39,5°C apparaissant le surlendemain du jour d'insertion et durant de 1 à 4 jours, sans relation avec le mal de tête. Les deux symptômes sont corrélés chez seulement quelques sujets. La fièvre est apparue chez 5 % des cas (parfois lors de la première insertion et parfois lors de la seconde). Les autres complications ont été semblables à celles décrites dans l'article publié précédemment J. Zipper et al. Adv. in Contraception 3(1987)255. A la fin de l'année de suivi, le taux de grossesse a été de 3,0 pour 100 femmes et par an.
(§2) Un autre groupe utilisant la quinacrine seule a été constitué, qui a subi deux insertions intra-utérines avec des comprimés à 180 mg. Les insertions ont été séparées par un cycle menstruel - 190 sujets sont entrés dans cette étude. […] Chez un petit nombre de sujets seulement les deux symptômes ont été présents simultanément. La fièvre est apparue dans 3% des cas (pas nécessairement lors des deux insertions). Ce groupe a manifesté un taux de grossesse de 3 pour 100 femmes, et par an à la fin de la première année du suivi. Les deux groupes quinacrine (250 et 180 mg) ont été considéré comme des témoins pour les autres groupes qui ont reçu un anti-inflammatoire, un antipyrétique et des substances anti-prostagrandines.
(§3) 4 mg de Bétaméthasone et 4 mg de Dexaméthasone ont été employé dans des groupes distincts de sujets. • 1 - 4 mg de Betaméthasone intra-musculaire Ce groupe incluait 90 sujets - 4 mg de Bethaméthasone ont été injectés lorsque le comprimé de quinacrine à 250 mg a été inséré. Ce procédé a été utilisé à nouveau avec le second comprimé (comprimé à 250 mg ayant un temps de dissolution de 100 mn). […] Les sujets ont achevé une année de suivi et ont représenté 1220 mois. […] Ce groupe incluait 65 sujets. […] Ces sujets ont effectué au total 830 mois de suivi. […] Ceci nous a conduit à faire des investigations sur la potentialisation possible des effets occlusifs de la quinacrine chez le rat dû à la betaméthasone. Cette méthode expérimentale est celle décrite pour d'autres substances (ref. Agent pharmacologique qui potentialisent ou inhibent l'action occlusivante de la quinacrine, dans le tube du lapin et dans l'utérus de rat cf J. ZIPPER-S.INSUNSA Female Stérilization - pronostic pour des techniques simplifiées pour le sujet ambulatoire Ed Gordon, W. Duncan, R.D. Falb et J. Joseph SPEIDEL (p 131-137), NEW YORK Acad. Press 1972 compte-rendu). La Betamethasone s'est révélée être active chez le rat, avec des solutions de l'ordre de 005 mg/ml. La base physiologique de cette action n'a pas été déterminée et aucun rapport à ce sujet n'a été publié (cf histologie de l'utérus de rat sous l'influence de 50 mg/ml de quinacrine + 0, 05 mg /ml Betamethasone Figure 1).
Ce groupe inclue 80 sujets. Lorque le comprimé de 250 mg est inséré, 4 mg de Dexamethatone sont injectés par voie intramusculaire. La méthode est réputée avec un second comprimé. […] Les sujets ont achevé 950 mois de suivi.
L'insertion est effectuée après que les comprimé aient été insérés. Ce groupe inclût 60 sujets. […] Ce groupe avait 850 mois de suivi.
La bétaméthasone et la Dexamethasone sont des stéroïdes ayant une activité puissante antiphlogistique, anti-inflammatoire et anti-oedemateuse au niveau cérébral et sont des adjuvants importants pour réduire les effets secondaires indésirables de la quinacrine lorsque cette substance est employée pour provoquer l'occlusion la région intra-murale des trompes humaines afin de réaliser une stérilisation pharmacologique. En outre, un mécanisme d'action qui n'est pas clair, semble renforcer l'action d'occlusion de la quinacrine à ce niveau. Le nombre total de sujets a été de 295 et a représenté 3850 mois/femmes d'observation. Seulement une grossesse a été détectée. […]

utérus de rat = test: Potentiation of the occlusive effect of quinacrine in the rat uterus; format: in vivo; conditions: solutions of the order of 005 mg/ml (Figure 1: 50 mg/ml quinacrine + 0, 05 mg /ml)
Description: as §3, with “La base physiologique de cette action n'a pas été déterminée et aucun rapport à ce sujet n'a été publié (cf histologie de l'utérus de rat sous l'influence de 50 mg/ml de quinacrine + 0, 05 mg /ml Betamethasone Figure 1).” left out

femmes = test: Clinical follow-up of side effects (fever, headache) after intrauterine insertion of quinacrine tablets, alone or with an anti-inflammatory adjuvant; format: in vivo
Description: as §1
as §2, with “anti-prostagrandines. […]” for “anti-prostagrandines.”
• 1 - Diclofenac sel de sodium - Cet important agent anti-inflammatoire et inhibiteur de synthèse de prostaglandine a été appliqué en une dose unique intramusculaire de 75 mg, lorsque le comprimé de quinacrine à 180 mg a été inséré. Deux insertions par sujet ont été effectuées, séparées par un cycle menstruel - 78 sujets ont été traités - 702 mois de suivi. […] Ce procédé a été utilisé à nouveau avec le second comprimé séparé par un cycle menstruel. […] Ce groupe incluait 85 sujets. Les sujets ont achevé 1190 mois de suivi. […] Cet agent antipyrétique anti-inflammatoire a été appliqué en une dose unique intramusculaire de 2 g lorsque le pellet de quinacrine à 180 mg (temps de dissolution 10 minutes) a été inséré. Deux insertions, séparées par un cycle mentruel ont été effectuées - 76 sujets ont été traités, 1064 mois de suivi. […] D'autres agents anti-inflammatoires , antiprostaglandine non stéroidiens comme le Piroxicam, Indomethacine, Ibuprogene, Naproxen ou d'autres peuvent être utilisés. La recherche avec quelques uns de ces agents est en développement. De même, la recherche avec les inhibiteurs de synthèse de prostaglandines appliqués par voie intrautérine ou intramusculaire une seule fois est en développement.

[1] = share of subjects after the first insertion of quinacrine (250 mg)
[2] = share of subjects after the third insertion of quinacrine (250 mg)
[3] = 50 mg tablets by the 'intra-urétine' route simultaneously with quinacrine tablets (180 mg, dissolution time 10 min), two insertions, 85 subjects, first seven days
[4] = single 75 mg intramuscular dose at each of two insertions of 180 mg quinacrine tablet, 78 subjects, first week

For `CCN(CC)CCCC(C)Nc1c2ccc(Cl)cc2nc2ccc(OC)cc12` (stereo not shown) [quinacrine], the fièvre (sujets; [1]) is given as 10%, the “maux de tête” value (sujets; [1]) is given as 9% and the fièvre (sujets; [2]) is given as 2%. The “maux de tête” value (sujets; [2]) was 10,2%, the taux de grossesse (trompes humaines; two insertions of 250 mg tablets, 209 subjects, 2544 months, end of the year of follow-up) was 3,0 pour 100 femmes et par an and the taux de grossesse (trompes humaines; two intrauterine insertions of 180 mg tablets, 190 subjects, end of first year of follow-up) was 3 pour 100 femmes, et par an.

For `C[C@H]1C[C@H]2[C@@H]3CCC4=CC(=O)C=C[C@]4(C)[C@@]3(F)[C@@H](O)C[C@]2(C)[C@@]1(O)C(=O)CO` [Betaméthasone], the grossesse (trompes humaines; 4 mg intramuscular at each of two insertions of 250 mg quinacrine tablet, 90 subjects, 1220 months of follow-up, pregnancy in sixth month) was “Seulement une grossesse normotopique a été détectée”, the grossesse (trompes humaines; 4 mg intrauterine (solution in 1 ml) simultaneously with quinacrine tablet, 65 subjects, 830 months of follow-up) was “Aucune grossesse n'a été signalée” and the “potentialisation des effets occlusifs de la quinacrine” value (utérus de rat) was “active”.

In the case of `O=C(O)Cc1ccccc1Nc1c(Cl)cccc1Cl` [Diclofenac sel de sodium], the fièvre (femmes; [3]) is reported as “ni fièvre”, the “maux de tête” value (femmes; [3]) is reported as “ni maux de tête” and the fièvre (femmes; [4]) is reported as “ni fièvre”. For the same molecule, the “mal de tête” value (femmes; [4]) was “ni mal de tête”, the grossesse (trompes humaines; 50 mg tablets by the 'intra-urétine' route simultaneously with quinacrine tablets (180 mg, dissolution time 10 min), 85 subjects, 1190 months of follow-up) was “Aucune grossesse n'a été détectée” and the grossesse (trompes humaines; single 75 mg intramuscular dose at each of two insertions of 180 mg quinacrine tablet, 78 subjects, 702 months of follow-up) was “aucune grossesse n'a été détectée”.

For `Cc1c(N(C)CS(=O)(=O)O)c(=O)n(-c2ccccc2)n1C` [Dipyrone, metamizol sel de sodium], the grossesse (trompes humaines; single 2 g intramuscular dose at each of two insertions of 180 mg quinacrine pellet (dissolution time 10 min), 76 subjects, 1064 months of follow-up) was “aucune grossesse n'a été détectée”.
